# Results as given in patent US20110071201A1, “PHENOL-CONTAINING AZOLE COMPOSITIONS FOR THE PROTECTION OF INDUSTRIAL MATERIALS” (LANXESS DEUTSCHLAND GMBH, priority 2009, published 2011).
# Tests used:
# [1] = Solubility in water and vapour pressure; type: physicochemical
# Coriolus versicolor = test: Agar hyphae growth inhibition test (MIC) with Kull synergism index; type: cell-based; settings: Trametes versicolor, 168 h; malt extract/peptone nutrient agar, 26° C., about 1 week; concentration at which radial hyphae growth was suppressed completely; read-out: MIC value against Coriolus versicolor
# Protocol: Mycelium pieces were punched out of a colony of the wood-destroying organism Coriolus versicolor and incubated on a malt extract/peptone-containing nutrient agar at 26° C. The growth of the hyphae with and without active compound and 6,6′-di-tert-butyl-2,2′-methylenedi-p-cresol was compared. The minimum inhibitory concentration (MIC) stated was the concentration at which the radial hyphae growth was suppressed completely (incubation time: about 1 week, independently of the fungal growth of the comparative sample without active compound).
# The synergism was determined by the method described by Kull et al. (F. C. Kull, P. C. Eismann, H. D. Sylvestrowicz, R. L. Mayer, Applied Microbiology 1961, 9, 538-541). The following relationships apply:
# SI=1 means additivity SI>1 means antagonism SI<1 means synergism Qa=concentration of substance A which is the MIC Qb=concentration of substance B which is the MIC QA=concentration of substance A in the concentration of A/B at which microbial growth is suppressed QB=concentration of substance B in the concentration of A/B at which microbial growth is suppressed
# Lentinus tigrinus = test: as above; type: cell-based; settings: 168 h, malt extract/peptone nutrient agar, 26° C., about 1 week, concentration at which radial hyphae growth was suppressed completely, read-out: MIC value against Lentinus tigrinus
solubility in water [1],vapour pressure ([1]; at 50° C.),SMILES,MIC (Coriolus versicolor),MIC (Lentinus tigrinus)
< 1 ppm,0.0001 hPa,"Cc1cc(Cc2cc(C)cc(C(C)(C)C)c2O)c(O)c(C(C)(C)C)c1 [phenol I, 6,6′-di-tert-butyl-2,2′-methylenedi-p-cresol]",> 30 µg/mL,
,,"CC(C)(C)C(O)(CCc1ccc(Cl)cc1)Cn1cncn1 (centres unmarked) [tebuconazole, reference compound]",1 µg/mL,0.3 µg/mL
